Values of other authors as cited in patent publication US8101779B2, “Enantioselective synthesis of (+) and (–)-2-[1-(2,6-dichlorophenoxy)-ethyl]-1,3-diazacyclopent-2-ene” (University of Kentucky Research Foundation, priority 2008, dated 2012).

CC(Oc1c(Cl)cccc1Cl)C1=NCCN1 (single isomer, unassigned; (+)) [(+)-lofexidine, (+) 2-[1-(2,6-dichlorophenoxy)-ethyl]1,3-diazacyclopent-2-ene]
dose at which the effect of lowering mean arterial blood pressure is apparent (effect apparent at doses as low as): ≤ 0.561 µg/kg

CC(Oc1c(Cl)cccc1Cl)C1=NCCN1 (single isomer, unassigned; (-)) [(−)-lofexidine, (−)-2-[1-(2,6-dichlorophenoxy)-ethyl]-1,3-diazacyclopent-2-ene]
dose at which lowering of mean arterial blood pressure is not seen (effect not seen even at doses as high as): > 10 µg/kg
